For orientation: pEC50 means −log10 of the EC50, conventionally taken in molar units. A low value points to a high EC50.

Test [1] addresses T1, Peroxisome proliferator-activated receptor alpha (Homo sapiens, UniProt Q07869).
T1 sequence (Q07869 whole entry): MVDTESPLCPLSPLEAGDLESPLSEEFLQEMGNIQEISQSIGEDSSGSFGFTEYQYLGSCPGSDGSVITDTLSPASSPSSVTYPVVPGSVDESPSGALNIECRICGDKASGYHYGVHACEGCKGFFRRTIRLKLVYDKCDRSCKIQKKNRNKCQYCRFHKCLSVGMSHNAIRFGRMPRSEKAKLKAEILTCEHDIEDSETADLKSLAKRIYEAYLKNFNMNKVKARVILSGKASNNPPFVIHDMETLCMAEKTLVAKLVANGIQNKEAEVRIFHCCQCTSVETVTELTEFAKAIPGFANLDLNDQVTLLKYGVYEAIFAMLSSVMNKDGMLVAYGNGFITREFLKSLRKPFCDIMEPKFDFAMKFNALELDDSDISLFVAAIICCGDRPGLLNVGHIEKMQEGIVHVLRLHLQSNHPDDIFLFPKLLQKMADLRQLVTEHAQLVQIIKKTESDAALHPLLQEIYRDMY
In words: Transactivation of GAL4-tagged human PPARalpha LBD expressed in human HepG2 cells at 100 nM to 100 uM incubated for 20 to 22 hrs by luciferase reporter gene assay. Format: cell-based. (In general: A reporter such as luciferase makes a cellular process visible.)

Test [2] deals with T2, Peroxisome proliferator-activated receptor delta (Homo sapiens, UniProt Q03181).
T2 sequence (Q03181 whole entry): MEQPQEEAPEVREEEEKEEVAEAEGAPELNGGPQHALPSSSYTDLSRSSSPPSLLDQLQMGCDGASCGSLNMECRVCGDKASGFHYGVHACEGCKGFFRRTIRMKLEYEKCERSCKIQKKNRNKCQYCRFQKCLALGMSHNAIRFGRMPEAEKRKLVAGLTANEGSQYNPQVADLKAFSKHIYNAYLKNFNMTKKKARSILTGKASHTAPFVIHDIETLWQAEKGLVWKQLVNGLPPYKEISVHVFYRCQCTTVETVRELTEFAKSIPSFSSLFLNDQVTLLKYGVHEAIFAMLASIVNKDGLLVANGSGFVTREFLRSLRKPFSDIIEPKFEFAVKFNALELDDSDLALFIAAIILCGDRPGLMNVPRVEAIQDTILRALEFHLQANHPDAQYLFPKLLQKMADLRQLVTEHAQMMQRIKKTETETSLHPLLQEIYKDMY
The experiment in a line: Transactivation of GAL4-tagged human PPARdelta LBD expressed in human HepG2 cells at 100 nM to 100 uM incubated for 20 to 22 hrs by luciferase reporter gene assay. Format: cell-based.

Test [3] addresses T3, Peroxisome proliferator-activated receptor alpha (Homo sapiens) (UniProt Q07869).
T3 sequence (whole entry): T1 sequence (Q07869 whole entry)
In words: Transactivation of GAL4-tagged human PPARalpha LBD expressed in human HepG2 cells at 100 nM to 100 uM incubated for 20 to 22 hrs by luciferase reporter gene assay relative to clofibric acid. Format: cell-based.

For test [4], the target named is T4, Peroxisome proliferator-activated receptor gamma (Homo sapiens) (UniProt P37231).
T4 sequence (whole entry): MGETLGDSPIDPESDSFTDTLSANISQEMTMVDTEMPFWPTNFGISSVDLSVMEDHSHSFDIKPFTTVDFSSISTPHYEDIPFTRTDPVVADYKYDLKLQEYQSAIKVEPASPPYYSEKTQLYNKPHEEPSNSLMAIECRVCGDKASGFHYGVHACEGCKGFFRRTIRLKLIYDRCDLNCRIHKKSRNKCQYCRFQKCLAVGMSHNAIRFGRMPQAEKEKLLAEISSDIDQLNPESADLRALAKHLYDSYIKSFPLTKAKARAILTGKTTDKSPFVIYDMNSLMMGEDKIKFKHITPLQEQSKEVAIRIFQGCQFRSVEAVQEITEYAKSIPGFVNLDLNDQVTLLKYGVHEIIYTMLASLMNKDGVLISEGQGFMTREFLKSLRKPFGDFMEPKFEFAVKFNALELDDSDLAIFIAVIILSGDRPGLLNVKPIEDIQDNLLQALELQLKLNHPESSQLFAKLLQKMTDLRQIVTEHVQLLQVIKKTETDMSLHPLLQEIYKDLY
In words: Transactivation of GAL4-tagged human PPARgamma LBD expressed in human HepG2 cells at 100 nM to 100 uM incubated for 20 to 22 hrs by luciferase reporter gene assay relative to rosiglitazone. In kind it is cell-based.

Test [5] deals with T5, Peroxisome proliferator-activated receptor delta (Homo sapiens) (UniProt Q03181).
T5 sequence (whole entry): T2 sequence (Q03181 whole entry)
In words: Transactivation of GAL4-tagged human PPARdelta LBD expressed in human HepG2 cells at 100 nM to 100 uM incubated for 20 to 22 hrs by luciferase reporter gene assay relative to L165,041. Format: cell-based.

For test [6], the target named is T3, Peroxisome proliferator-activated receptor alpha (Homo sapiens). In words: Potency index, ratio of EC50 for GL479 to EC50 for test compound for transactivation of GAL4-tagged human PPARalpha LBD expressed in human HepG2 cells incubated for 20 to 22 hrs by luciferase reporter gene assay. Format: cell-based.
The target of test [7] is T5, Peroxisome proliferator-activated receptor delta (Homo sapiens). The experiment in a line: Agonist activity at PPARdelta in human HepG2 cells assessed as increase in PDK4 RNA expression at 2 uM incubated for 48 hrs by qRT-PCR analysis relative to control. Format: cell-based.
In test [8] the test system is Liver. The experiment in a line: Ex vivo antiinflammatory activity in Sprague-Dawley rat liver assessed as inhibition of LPS-induced PGE2 production at 1 uM incubated for 4 hrs followed by LPS addition by radioimmunoassay. Format: functional, tissue-based.
Test [9] concerns Cortex. The experiment in a line: Ex vivo antiinflammatory activity in Sprague-Dawley rat cortex assessed as inhibition of LPS-induced PGE2 production at 1 uM incubated for 4 hrs followed by LPS addition by radioimmunoassay. Format: functional, tissue-based.
The target of test [10] is T6, Peroxisome proliferator-activated receptor gamma (Homo sapiens, UniProt P37231).
T6 sequence (P37231 whole entry): T4 sequence (whole entry)
The experiment in a line: Transactivation of GAL4-tagged human PPARgamma LBD expressed in human HepG2 cells at 100 nM to 100 uM incubated for 20 to 22 hrs by luciferase reporter gene assay. In kind it is cell-based.

The target in test [11] is T3, Peroxisome proliferator-activated receptor alpha (Homo sapiens). The experiment in a line: Agonist activity at PPARalpha in human HepG2 cells assessed as increase in CPT1A RNA expression at 100 uM incubated for 48 hrs by qRT-PCR analysis relative to control. In kind it is cell-based.
For test [12], the target named is T5, Peroxisome proliferator-activated receptor delta (Homo sapiens). The experiment in a line: Agonist activity at PPARdelta in human HepG2 cells assessed as increase in PDK4 RNA expression at 100 uM incubated for 48 hrs by qRT-PCR analysis relative to control. Format: cell-based.
In test [13] the target is T4, Peroxisome proliferator-activated receptor gamma (Homo sapiens). The experiment in a line: Agonist activity at PPARgamma in human HepG2 cells assessed as increase in GLUT1 RNA expression at 100 uM incubated for 48 hrs by qRT-PCR analysis relative to control. Format: cell-based.
Test [14] concerns Liver. In words: Ex vivo antiinflammatory activity in Sprague-Dawley rat liver assessed as inhibition of LPS-induced PGE2 production at 0.1 to 10 uM incubated for 4 hrs followed by LPS addition by radioimmunoassay. In kind it is functional, tissue-based.
The test system of test [15] is Cortex. In words: Ex vivo antiinflammatory activity in Sprague-Dawley rat cortex assessed as inhibition of LPS-induced PGE2 production at 0.1 to 10 uM incubated for 4 hrs followed by LPS addition by radioimmunoassay. Format: functional, tissue-based.

pEC50: −log10 of the molar value. Calls of active or inactive are those of the source. The calls are words filed in the database; no cut-off is given here.

As to `CC(C)(Oc1ccc(CCOc2ccc(/N=N/c3ccc(Cl)cc3)cc2)cc1)C(=O)O`, the negative logarithm of the EC50 (pEC50) in test [1] was 6.42; in [2], 5.51. The Emax in test [3] came out at 60%; in test [4], 12%; in test [5] it was 23%. For the same compound, in test [6], the Ratio EC50 is 5.
In the case of `CCCc1c(OCCCOc2ccc(OCC(=O)O)cc2)ccc(C(C)=O)c1O`, the pEC50 in [2] was 6.68. For the same compound, the outcome in [7] was Active. In addition, the result in the test with Liver [8] and in the test on Cortex [9] was inactive.
Regarding `CC(C)(Oc1ccc(OCCc2ccc(/N=N/c3ccc(C#N)cc3)cc2)cc1)C(=O)O`, the pEC50 in test [1] was 5.85; in test [2], 5.55. Further, the values for the Emax in test [3], in [4] and in [5] were 61%, 12% and 50%, respectively.
For the compound `CC(C)(Oc1ccc(CCOc2ccc(/N=N/c3ccc([N+](=O)[O-])cc3)cc2)cc1)C(=O)O`, the pEC50 in test [2] is 5.39. In addition, the Emax in test [3] came to 11%; in [4] it was 14%; in [5], 21%.
Consider `CC(C)(Oc1ccc(CCOc2ccc(/N=N/c3ccccc3)cc2)cc1)C(=O)O`, for which the pEC50 is 5.68 in [1] and 5.19 in test [2]. Also, the figures for the Emax in [3], in test [4] and in test [5] were 56%, 13% and 39%, respectively.
As to `COc1ccc(/N=N/c2ccc(OCCc3ccc(OC(C)(C)C(=O)O)cc3)cc2)cc1`, the pEC50 in [1] is 5.62; in [2], 5.85. Moreover, the Emax in [3] was 32%; in [4] it was 10%; in [5] it was 23%.
For `Cc1cccc(Nc2cc(Cl)nc(SCC(=O)O)n2)c1C`, the result with Liver [8] and in the test with Cortex [9] was Active.
On to `CC(C)(Oc1ccc(CCOc2ccc(/N=N/c3ccc(Br)cc3)cc2)cc1)C(=O)O`, for which the pEC50 in test [1] was 6.09; in [2], 5.41. Moreover, the results for the Emax in [3], in [4] and in [5] were 71%, 12% and 29%, respectively. Besides, in test [6], the Ratio EC50 was 3.
For `CC(C)(Oc1ccc(OCCc2ccc(/N=N/c3ccc(Cl)cc3)cc2)cc1)C(=O)O`, the pEC50 in test [1] is 6.29; in test [2], 5.92. The Emax in test [3] is 52%; in test [4] it was 10%; in [5], 41%.
For `CC(C)(Oc1ccc(OCCc2ccc(/N=N/c3ccc([N+](=O)[O-])cc3)cc2)cc1)C(=O)O`, the pEC50 in [2] was 5.64. For the same compound, the values for the Emax in test [3], in test [4] and in test [5] were 19%, 10% and 28%, respectively.
As to `CC(C)(Oc1ccc(CCOc2ccc(/N=N/c3ccc(C(F)(F)F)cc3)cc2)cc1)C(=O)O`, the pEC50 in test [1] was 5.64; in test [2] it was 5.74. The results for the Emax in test [3], in test [4] and in test [5] were 35%, 8% and 24%, respectively.
The corresponding values for `CC(C)(Oc1ccc(OCCc2ccc(/N=N/c3ccc(Br)cc3)cc2)cc1)C(=O)O` are 5.72, 5.96, 35%, 8% and 29%.
With `CC(C)(Oc1ccc(OCCc2ccc(/N=N/c3ccccc3)cc2)cc1)C(=O)O`, the figures for the pEC50 in [1], in test [10] and in test [2] were 6.60, 5.22 and 5.55, respectively. For the same compound, the Emax in test [3] amounted to 69%; in [4] it was 24%; in test [5], 35%. Further, the outcome (in [11]; in test [12]; in [13]; in the test on Liver [14]; in the test with Cortex [15]) was Active.
`CCc1ccc(CCOc2ccc(CC3SC(=O)NC3=O)cc2)nc1` (stereo not drawn): the result with Liver [8] and in the test on Cortex [9] was Active.
The compound `CC(C)(Oc1ccc(OCCc2ccc(/N=N/c3ccc(C(F)(F)F)cc3)cc2)cc1)C(=O)O` had a pEC50 in test [1] of 5.66. Further, the Emax is 37% in test [3], 9% in [4] and 12% in test [5].
Take `CC(C)(Oc1ccc(CCOc2ccc(/N=N/c3ccc(C#N)cc3)cc2)cc1)C(=O)O`: the negative logarithm of the EC50 (pEC50) was 5.59 in test [1] and 5.19 in test [2]. Moreover, the Emax in [3] worked out at 25%; in [4], 12%; in test [5], 20%.

Source of the values: ChEMBL document CHEMBL4433217, “Novel Phenyldiazenyl Fibrate Analogues as PPAR α/γ/δ Pan-Agonists for the Amelioration of Metabolic Syndrome” (ACS Med Chem Lett, 2019).
